Data as given in patent publication US20200375987A1, “METALLO-BETA-LACTAMASE INHIBITORS AND METHODS OF USE THEREOF” (priority 2018, published 2020).

Assays:
IMP-1 = IMP-1 (Serratia marcescens, UniProt P52699); experiment: Enzyme activity: determination of IC50, fluorescence assay with CCF2-FA substrate (IMP-1); type: biochemical; settings: 2 pM enzyme, 1.25 μM CCF2-FA, 2 hours at 25° C.; read-out: IMP1 IC50
Method: (§1) The Class B enzyme activities were measured in the presence of the test inhibitor in a fluorescence assay against a commercially available substrate consisting of a cephalosporin core linking 7-hydroxycoumarin to fluorescein (CCF2-FA). The enzyme (NDM-1, IMP-1 or VIM-1) and the substrate were diluted in 100 mM KH2PO4 buffer (pH 7) containing 0.005% Tween-20 and 10 μM ZnSO4. In the assay, the final concentration of enzyme was 1 pM, 2 pM and 30 pM for NDM-1, IMP-1 and VIM-1, respectively, and the final concentration of CCF2-FA was 1.25 μM. The test inhibitor was dissolved in dimethylsulfoxide and diluted 1:50 in the assay, resulting in a final concentration range of 20 μM to 0.00063 μM. In a 384-well microplate, the test inhibitor was incubated with the metallo-β-lactamase enzyme and the substrate for 2 hours at 25° C. Fluorescence at 460 nm following excitation at 405 nm was measured. The IC50 value was determined from semi-logarithmic plots of enzyme inhibition versus inhibitor concentration, with a curve generated using a 4-parameter fit.

VIM-1 = VIM-1 (Pseudomonas aeruginosa, UniProt A0A0F7KYQ8); experiment: Enzyme activity: determination of IC50, fluorescence assay with CCF2-FA substrate (VIM-1); type: biochemical; settings: 30 pM enzyme, 1.25 μM CCF2-FA, 2 hours at 25° C.; read-out: VIM1 IC50
Method: as §1

[1] = system: P. aeruginosa MB9799 (efflux mutant, IMP-1); experiment: Efflux: concentration of MBL inhibitor restoring susceptibility to imipenem (MITC95), efflux− strain; type: cell-based, Pseudomonas aeruginosa; settings: imipenem at 2 μg/mL in the presence of a class A, C, D serine β-lactamase inhibitor closely related to relebactam
From the text: (§2) In order to assess the contribution of efflux to lack of whole cell inhibition of metallo-beta-lactamase inhibitors of formula I, tool strains were constructed. The strain background is Pseudomonas aeruginosa PAO1. A wild-type (MB5919) and an isogenic strain in which multiple efflux pumps have been disrupted genetically were used. The MBL IMP-1, obtained from a clinical isolate was introduced into the strain pair by the following process:
(§3) Plasmid DNA (encoding IMP-1) was extracted from CL 5673 (IMP-1, P. aeruginosa clinical strain) by standard techniques. The plasmid DNA was transformed into parental MB5919 (oprD+, efflux+, inducible AmpC) and MB5890 (oprD+, efflux−, inducible AmpC) isogenic strains by electroporation. These transformed strains were plated onto cation-adjusted Muller-Hinton agar plates containing ceftazidime at 32 μg/mL (MB5919) and 16 μg/mL (MB5890) to select for those cells in which the IMP-1-expressing plasmid was introduced successfully, resulting in resistance to ceftazidime. Agarose-gel electrophoresis of PCR product for IMP-1 from the successful transformants was used to compare to control and to the original strain from which the plasmid was obtained, confirming transfer of the IMP-1 gene (data not shown).
(§4) The strain set was then used as a pair to determine the effect of metallo-β-lactamase inhibitors of Formula Ion the MIC of imipenem and/or ceftazidime. A fixed concentration of antibiotic is included in standard microbroth MIC tests, usually at the CLSI breakpoint concentration. A fixed amount of a class A/C beta-lactamase inhibitor is also included to inhibit the resident Pseudomonas AmpC enzyme. A serial titration of the metallo-β-lactamase inhibitor was included and the concentration of metallo-β-lactamase inhibitor which restores susceptibility of the strain to the included antibiotic was recorded. That concentration of metallo-β-lactamase inhibitor was then compared between the two strains to determine the fold difference between the efflux+(MB9798) and efflux−(MB9799) strains, which indicates n the extent to which the MBLi is subject to efflux.

[2] = system: Serratia marcescens expressing IMP-1 (CL5741); experiment: Antibiotic potentiation activity: synergistic concentration (MITC95) with imipenem; type: cell-based; settings: imipenem 1 μg/mL; lowest concentration inhibiting 95% of growth; 35° C., 22-24 hours
Method: (§5) The bacterial strains tested included the clinical strains Escherichia coli expressing NDM-1 (CLB30005, CLB30016), Serratia marcescens expressing IMP-1 (CL5741), and Klebsiella pneumoniae expressing VIM-1 (IHMA599644). Inhibitor activity was measured in the presence and absence of imipenem in a 384-well microplate.
(§6) The clinical strains CLB30016, CL5741 and IHMA599644 were grown on trypticase soy agar containing 5% sheep's blood. The bacteria on agar plates were incubated at 35° C. with humidity overnight. The following day, individual colonies from each clinical strain were picked and resuspended in 5 mL saline to attain an OD600 of 0.14, 0.11, 0.15 and 0.13, for CLB30016, CL5741 and IHMA599644, respectively. These were further diluted 1:100 into 1.1× CAMHB and used to inoculate the test wells as described below.
(§7) Imipenem in 10 mM 3-(N-morpholino)propanesulfonic acid (MOPS, pH 7) was stored in single use aliquots at −80° C. […] On the day of the assay, 4 μl of antibiotic was added to 45 μl of bacteria followed by 1 μl of test compound and mixed by pipetting and with an orbital shaker. The concentration of antibiotic used in the assay was 1 μg/mL. Microplates were covered and incubated at 35° C. for 22 hours to 24 hours. At the end of the incubation, absorbance was determined using a spectrophotometer. The synergistic concentration of MBLI was determined by identifying the lowest concentration of test compound in the presence of a given concentration of antibiotic that was required to inhibit 95% of the growth of the bacteria. The results for Examples 1-209 are reported in Table 1, expressed as the concentration of compound that potentiated the action of antibiotic (imipenem) affecting 95% inhibition of bacterial growth (MITC95).

[3] = system: Klebsiella pneumoniae expressing VIM-1 (IHMA599644); experiment: as above; type: cell-based; settings: imipenem 1 μg/mL; lowest concentration inhibiting 95% of growth; 35° C., 22-24 hours
Method: as §5, §6, §7

[4] = system: Escherichia coli expressing NDM-1 (CLB30016); experiment: as above; type: cell-based; settings: imipenem 1 μg/mL; lowest concentration inhibiting 95% of growth; 35° C., 22-24 hours
Method: as §5, §6, §7

NDM-1 = NDM-1 (Klebsiella pneumoniae, UniProt C7C422); experiment: Enzyme activity: determination of IC50, fluorescence assay with CCF2-FA substrate (NDM-1); type: biochemical; settings: 1 pM enzyme, 1.25 μM CCF2-FA, 2 hours at 25° C.; read-out: NDM1 IC50
Method: as §1

VIM-2 = VIM-2 (Escherichia coli, UniProt Q5U7L7); experiment: Enzyme activity: determination of IC50 (VIM-2); type: biochemical; settings: read-out: VIM2 IC50
[5] = system: P. aeruginosa MB9798 (efflux WT, IMP-1); experiment: Efflux: concentration of MBL inhibitor restoring susceptibility to imipenem (MITC95), efflux+ strain; type: cell-based, Pseudomonas aeruginosa; settings: imipenem at 2 μg/mL in the presence of a class A, C, D serine β-lactamase inhibitor closely related to relebactam
From the text: as §2, §3, §4

IMP-1, sequence (P52699 19-246, looked up, species assumed): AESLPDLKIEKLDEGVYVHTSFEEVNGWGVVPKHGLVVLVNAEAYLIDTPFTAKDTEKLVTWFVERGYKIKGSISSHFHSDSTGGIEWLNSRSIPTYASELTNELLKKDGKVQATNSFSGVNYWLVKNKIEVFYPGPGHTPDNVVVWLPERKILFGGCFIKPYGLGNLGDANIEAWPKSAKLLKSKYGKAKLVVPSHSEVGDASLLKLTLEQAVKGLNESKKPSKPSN
NDM-1, sequence (C7C422 29-270, looked up, species assumed): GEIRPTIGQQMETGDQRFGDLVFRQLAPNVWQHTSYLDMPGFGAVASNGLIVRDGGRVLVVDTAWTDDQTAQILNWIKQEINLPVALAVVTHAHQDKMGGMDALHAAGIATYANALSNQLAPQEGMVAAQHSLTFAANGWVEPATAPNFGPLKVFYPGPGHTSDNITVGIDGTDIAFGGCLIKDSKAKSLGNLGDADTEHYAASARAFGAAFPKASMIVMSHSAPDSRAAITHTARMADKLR

SMILES	IC50 (IMP-1)	IC50 (VIM-1)	MB9799 MITC95 P. aeruginosa Efflux Mutant [1]	CL5741 S.marcescens MITC95 uM IMP [2]	IHMA599644 K.pneumoniae MITC95 uM VIM [3]	CLB30016 E.coli MITC95 NDM [4]	IC50 (NDM-1)	IC50 (VIM-2)	MB9798 MITC95 P. aeruginosa Efflux WT [5]
NS(=O)(=O)c1c(S(=O)(=O)N[C@@H]2CCNC2)ccc(N2CCCn3ccnc32)c1-c1nnn[nH]1 [Example 13, (R)-4-(6,7-dihydroimidazo[1,2-a]pyrimidin-8(5H)-yl)-N1-(pyrrolidin-3-yl)-3-(1H-tetrazol-5-yl)benzene-1,2-disulfonamide]	9.7 nM	0.39 nM	0.78 µM	0.39 µM	0.78 µM	0.20 µM	0.77 nM	2.16 nM	1.56 µM
NS(=O)(=O)c1c(S(=O)(=O)N[C@@H]2CCNC2)ccc(N2CCc3ccncc32)c1-c1nnn[nH]1 [Example 33, 4-(2,3-dihydro-1H-pyrrolo[2,3-c]pyridin-1-yl)-N1-[(3R)-pyrrolidin-3-yl]-3-(1H-tetrazol-5-yl)benzene-1,2-disulfonamide]	1.73 nM	0.26 nM	1.56 µM	3.13 µM	3.13 µM	1.56 µM	0.3 nM	0.72 nM	6.25 µM
NS(=O)(=O)c1c(S(=O)(=O)N[C@@H]2CCNC2)ccc(N2CCc3ncccc32)c1-c1nnn[nH]1 [Example 34, 4-(2,3-dihydro-1H-pyrrolo[3,2-b]pyridin-1-yl)-N1-[(3R)-pyrrolidin-3-yl]-3-(1H-tetrazol-5-yl)benzene-1,2-disulfonamide]	5.21 nM	0.25 nM	1.56 µM	1.56 µM	3.13 µM	0.39 µM	0.29 nM	0.81 nM	12.50 µM
NC[C@@H](O)CNS(=O)(=O)c1ccc(N2CCn3ccnc32)c(-c2nnn[nH]2)c1S(N)(=O)=O [Example 19, (R)—N1-(3-amino-2-hydroxypropyl)-4-(2,3-dihydro-1H-imidazo[1,2-a]imidazol-1-yl)-3-(1H-tetrazol-5-yl)benzene-1,2-disulfonamide]	12.1 nM	5.96 nM	1.56 µM	0.78 µM	3.13 µM	0.20 µM	1.03 nM	9.8 nM	6.25 µM
NCCNS(=O)(=O)c1ccc(N2CCn3ccnc32)c(-c2nnn[nH]2)c1S(N)(=O)=O [Example 20, N1-(2-aminoethyl)-4-(2,3-dihydro-1H-imidazo[1,2-a]imidazol-1-yl)-3-(1H-tetrazol-5-yl)benzene-1,2-disulfonamide]	9.68 nM	12.4 nM	0.78 µM	0.78 µM	3.13 µM	0.39 µM	1.7 nM	15.1 nM	6.25 µM
NS(=O)(=O)c1c(S(=O)(=O)N[C@@H]2CCNC2)ccc(N2CCCc3ccc(CCO)nc32)c1-c1nnn[nH]1 [Example 35, 4-[7-(2-hydroxyethyl)-3,4-dihydro-1,8-naphthyridin-1(2H)-yl]-N1-[(3R)-pyrrolidin-3-yl]-3-(1H-tetrazol-5-yl)benzene-1,2-disulfonamide]	4.68 nM	5.78 nM	0.78 µM	1.56 µM	6.25 µM	0.78 µM	4.34 nM	5.59 nM	50.00 µM
NC[C@@H](O)CNS(=O)(=O)c1ccc(N2CC[C@@H](CO)n3ccnc32)c(-c2nn[nH]n2)c1S(N)(=O)=O [Example 39, N1-((R)-3-amino-2-hydroxypropyl)-4-((S)-5-(hydroxymethyl)-6,7-dihydroimidazo[1,2-a]pyrimidin-8(5H)-yl)-3-(2H-tetrazol-5-yl)benzene-1,2-disulfonamide]	6.52 nM	1.62 nM	1.17 µM	0.78 µM	1.56 µM	0.29 µM	0.89 nM	14.3 nM	2.34 µM
CNC(=O)c1nsc2c1CCN(c1ccc(S(=O)(=O)N[C@@H]3CCNC3)c(S(N)(=O)=O)c1-c1nnn[nH]1)C2 [Example 28, N-methyl-6-{4-[(3R)-pyrrolidin-3-ylsulfamoyl]-3-sulfamoyl-2-(1H-tetrazol-5-yl)phenyl}-4,5,6,7-tetrahydroisothiazolo[5,4-c]pyridine-3-carboxamide]	0.28 nM	0.15 nM	3.13 µM	1.56 µM	6.25 µM	0.78 µM	0.21 nM	0.48 nM	12.50 µM
Cc1cc2c(c(C)n1)CCN2c1ccc(S(=O)(=O)N[C@@H]2CCNC2)c(S(N)(=O)=O)c1-c1nnn[nH]1 [Example 27, 4-(4,6-dimethyl-2,3-dihydro-1H-pyrrolo[3,2-c]pyridin-1-yl)-N1-[(3R)-pyrrolidin-3-yl]-3-(1H-tetrazol-5-yl)benzene-1,2-disulfonamide]	84 nM	0.14 nM	3.13 µM	6.25 µM	3.13 µM	1.56 µM	5 nM	1.37 nM	50.00 µM
